# Reference: US9757408B2 (Hayashibara Co., Ltd., priority 2010, dated 2017)
# Marks after values point to notes of the source that are not given here.
# What was measured:
# [1] = mouse, in vivo
# Procedure: The eight mice in each five groups were sensitized (may be simply called “sensitization”, hereinafter) with picryl chloride (Tokyo Chemical Industry Co., Ltd., Tokyo, Japan) in such a manner of dropping a solution, which had been dissolved in a mixture solution of ethanol and acetone in a volume ratio of 4:1 at a concentration of 5%, on the shaved abdominal skin of the mice and on four footpads in a total volume of 150 μL/mouse, and spreading the solution over the abdominal skin and the foot pads by using a micropipette similarly as above.
# Throughout the test period, the mice were weighed once a week. The judgement of the conditions of skin inflammation was conducted twice a week every Tuesday and Friday from the 3rd induction for the degrees of four items of red flare/bleeding, edema (swelling of earflap), chafing/loss of tissue, and the formation of scar tissue/drying, and scored based on the criterion of four grades shown in Table 17; “0” (symptomless), “1” (mild), “2” (moderate), and “3” (severe). The total scores of each evaluation items for each group were averaged for use as a skin score.
# [2] = test system: TNF-α in serum of mice administered with LPS; assay: Serum TNF-α in LPS-administered mice, ANO i.v. (Experiment 7); assay type: in vivo, BALB/c mice; conditions: LPS 18 mg/kg i.p., serum two hours after LPS
# Procedure: (§1) More specifically, 18 BALB/c female mice, 9-week-old, commercialized by Japan Charles River, Tokyo, Japan, were randomly divided into three groups, six heads each. An LPS specimen derived from E. coli (055:B5), commercialized by Sigma-Aldrich Corporation, St. Louis, Mo. USA, was dissolved in physiological saline and intraperitoneally administered to all the 6 mice in respective three groups at a dose of 18 mg/kg body weight of LPS (Experiment groups 1 to 3). […] To the six mice of the remaining one group was intravenously administered PBS in a liquid volume of 0.2 mL/head simultaneously with the administration of LPS (Experiment group 1).
# (§2) For the mice in each group, they were collected blood at two hours after the LPS administration, followed by assaying the level of TNF-α, IL-6, IL-10, and IL-12 in each serum and averaging the data for each group. For the assay of the level of TNF-α, the same ELISA as in Experiment 2 was used and for the assay of the level of IL-6, the same ELISA as in Experiment 3 was used. […]
# [3] = test system: IL-6 in serum of mice administered with LPS; assay: Serum IL-6 in LPS-administered mice, ANO i.v. (Experiment 7); assay type: in vivo, BALB/c mice; conditions: LPS 18 mg/kg i.p., serum two hours after LPS
# Procedure: as §1, §2
# [4] = test system: BALB/c mice; assay: Acute toxicity test, intraperitoneal (Experiment 20); conditions: mouse, in vivo, ip
# Procedure: As a control, only PBS was intraperitoneally administered to 10 BALB/c mice (6-week-old, female, average weight of 20 g, commercialized by Charles River Laboratories Japan Inc., Tokyo, Japan) at a dose of 1 mL/head, followed by observing the course of the mice for 24 hours.
# [5] = test system: IL-10 in serum of mice administered with LPS; assay: Serum IL-10 in LPS-administered mice, oral administration (Experiment 11); assay type: in vivo, BALB/c mice; conditions: LPS 18 mg/kg i.p., serum 90 min after LPS
# Procedure: (§3) The seven mice in another one group were orally administered through a gastric tube with 3′-glucosyl-adenosine N1-oxide, which had been dissolved in PBS, at a dose of 200 mg/kg body weight in a liquid volume of 0.2 mL/head (Experiment group 4). The seven mice in the remaining one group were orally administered through a gastric tube with PBS in a liquid volume of 0.2 mL/head (Experiment group 1). All the mice were intraperitoneally administered with an LPS specimen derived from E. coli (055:B5), commercialized by Sigma-Aldrich Corporation, St. Louis, Mo. USA, which had been dissolved in PBS, at a dose of 18 mg/kg body weight (Experiment groups 1 to 4). For each group, the mice were collected blood from their tail veins at 90 min after administering LPS, followed by assaying the concentrations of TNF-α, IL-6, and IL-10 contained in serum by the same method as in […].
# [6] = D-MEM medium, absence of human serum, 100 μM, 37° C., 24 hours
# [7] = physchem; conditions: aqueous buffer
# [8] = test system: IL-6 in serum of mice administered with LPS; assay: Serum IL-6 in LPS-administered mice, oral administration (Experiment 11); assay type: in vivo, BALB/c mice; conditions: LPS 18 mg/kg i.p., serum 90 min after LPS
# Procedure: as §3
# [9] = test system: TNF-α production from THP-1 cells; adenosine receptors A1R, A2AR, A2BR, A3R; assay: TNF-α production from THP-1 cells, LPS + IFN-γ, ANO with adenosine receptor antagonists (Experiment 5); assay type: cell-based; conditions: LPS + human IFN-γ, ANO 5 μM
# Text: USA; ZM241385, commercialized by Tocris Bioscience, MSY USA; MRS1754, commercialized by Sigma-Aldrich Corporation, St. Louis, Mo. […] The results are in Table 5 in parallel.
compound,measurement,setting,value
"Nc1ncnc2c1ncn2[C@@H]1O[C@H](CO)[C@@H](O)[C@H]1O [AN, adenosine]",body weight of mice applied with the gel,[1],reduction of increasing rate of their body weights
"Nc1c2ncn([C@@H]3O[C@H](CO)[C@@H](O)[C@H]3O)c2nc[n+]1[O-] [ANO, adenosine N1-oxide]",TNF-α Concentration,[2]; ANO 68 mg/kg i.v.,109** pg/mL
same,TNF-α Concentration,[2]; ANO 135 mg/kg i.v.,46** pg/mL
same,IL-6 Concentration,[3]; ANO 68 mg/kg i.v.,59.1 ng/mL
same,IL-6 Concentration,[3]; ANO 135 mg/kg i.v.,46.3* ng/mL
same,LD50,[4],"≥ 1,000 mg/kg body weight"
same,change in appearance after administration,[4],no change in appearance
same,Amount of IL-10,[5]; oral 100 mg/kg,5.6* ng/mL
same,Amount of IL-10,[5]; oral 200 mg/kg,9.7** ng/mL
same,residual percentage,[6],100%
same,solubility,[7],~20 mg/mL
same,Amount of IL-6,[8]; oral 100 mg/kg,17.5 ng/mL
same,Amount of IL-6,[8]; oral 200 mg/kg,16.0* ng/mL
same,TNF-α Concentration,[9]; no antagonist,97 pg/mL
same,TNF-α Concentration,[9]; pretreated with DPCPX 0.5 μM,132** pg/mL
same,TNF-α Concentration,[9]; pretreated with DPCPX 1 μM,130** pg/mL
same,TNF-α Concentration,[9]; pretreated with DPCPX 5 μM,129** pg/mL
same,TNF-α Concentration,[9]; pretreated with DPCPX 10 μM,133** pg/mL
same,TNF-α Concentration,[9]; pretreated with MRS1220 0.5 μM,105** pg/mL
same,TNF-α Concentration,[9]; pretreated with MRS1220 1 μM,105** pg/mL
same,TNF-α Concentration,[9]; pretreated with MRS1220 5 μM,105** pg/mL
same,TNF-α Concentration,[9]; pretreated with MRS1220 10 μM,102** pg/mL
same,TNF-α Concentration,[9]; pretreated with MRS1754 0.5 μM,118** pg/mL
same,TNF-α Concentration,[9]; pretreated with MRS1754 1 μM,121** pg/mL
same,TNF-α Concentration,[9]; pretreated with MRS1754 5 μM,121** pg/mL
same,TNF-α Concentration,[9]; pretreated with MRS1754 10 μM,103* pg/mL
same,TNF-α Concentration,[9]; pretreated with ZM241385 0.5 μM,135** pg/mL
same,TNF-α Concentration,[9]; pretreated with ZM241385 1 μM,137** pg/mL
same,TNF-α Concentration,[9]; pretreated with ZM241385 5 μM,135** pg/mL
same,TNF-α Concentration,[9]; pretreated with ZM241385 10 μM,132** pg/mL
